Data as given in PubChem BioAssay (NCI).
Values joined by “and” are separate entries in the source; they are usually repeats but may differ in a detail not shown here. Equal entries are not always repeated.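 Tested at 5 concentrations; 48 h exposure; 96-well plates; endpoints linearly interpolated, else capped at highest concentration. At the GI50, growth is halved. TGI: concentration producing complete growth inhibition.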

What was measured:
Assay in all cases: NCI-60 cell line screen, 48 h
786-0 renal = tested on: 786-0 renal
COLO 205 colon = tested on: COLO 205 colon
HOP-62 NSCLC = tested on: HOP-62 NSCLC
MCF7 breast = tested on: MCF7 breast
NCI-H23 lung = tested on: NCI-H23 lung
NCI-H522 lung = tested on: NCI-H522 lung
OVCAR-3 ovarian = tested on: OVCAR-3 ovarian
OVCAR-8 ovarian = tested on: OVCAR-8 ovarian
SN12C renal = tested on: SN12C renal
SNB-19 CNS = tested on: SNB-19 CNS

Structure (SMILES)	GI50 (786-0 renal) [µM]	TGI (786-0 renal) [µM]	GI50 (COLO 205 colon) [µM]	TGI (COLO 205 colon)	GI50 (HOP-62 NSCLC) [µM]	TGI (HOP-62 NSCLC)	GI50 (MCF7 breast) [µM]	TGI (MCF7 breast)	GI50 (NCI-H23 lung) [µM]	TGI (NCI-H23 lung)	GI50 (NCI-H522 lung) [µM]	TGI (NCI-H522 lung)	GI50 (OVCAR-3 ovarian) [µM]	TGI (OVCAR-3 ovarian)	GI50 (OVCAR-8 ovarian) [µM]	TGI (OVCAR-8 ovarian)	GI50 (SN12C renal) [µM]	TGI (SN12C renal)	GI50 (SNB-19 CNS) [µM]	TGI (SNB-19 CNS)
C[C@]12CC[C@@H]3c4cc(O)c(O)cc4CC[C@H]3[C@@H]1CC[C@@H]2O	6.08	> 100	28.9	> 73.3 µM	4.08	54.6 µM	3.07	18 µM	5.31	> 83.7 µM	0.987	3.83 µM	2.77	> 31.3 µM	6.89	> 100 µM	6.21	> 100 µM	11.1	> 100 µM
CCCCCCCCCCCC(=O)N1CCN(C(C)=O)CC1	16.9	31.1	18.1	33.6 µM	18.1	36.4 µM	17.6	32.8 µM	19.5	40.8 µM	17.4	38.4 µM	27.6	95 µM	29.3	> 100 µM	18.8	37.3 µM	19.3	40 µM
CCOC(=O)c1cc(C(=O)c2cc(OC)c(OC)c(OC)c2)n2c1ccc1ccccc12	0.693	> 100	0.26	1.94 µM	0.466	> 100 µM	0.1	> 100 µM	0.478	> 100 µM	0.131		0.151	1.26 µM	0.489	> 100 µM	0.814	> 100 µM	0.636	> 100 µM
COc1cc2c(cc1Cc1cccc(Cl)c1F)c(=O)c(C(=O)O)cn2[C@@H](CO)C(C)C	3.55	14.9	2.64	6.29 µM	5.22	18.6 µM	3.54	16.3 µM	3.18	12.4 µM	3.51	11.7 µM	3.32	10.9 µM	3.03	11.8 µM	3.06	13.7 µM	3.07	16 µM
S=C(NCCNC(=S)[S][Sn]([c]1ccccc1)([c]1ccccc1)[c]1ccccc1)[S][Sn]([c]1ccccc1)([c]1ccccc1)[c]1ccccc1	0.0366	0.104	0.0166	0.0411 µM	0.0677	0.147 µM	0.0133	0.0553 µM	0.0273	0.119 µM	0.0265	0.0941 µM	0.0145	0.0384 µM	0.0445	0.202 µM	0.0325	0.218 µM	0.0638	0.139 µM
CC1=CCCC2C1(C)CCC(C)C2(C)Cc1cc(O)ccc1O (stereo unspecified)		20.3		34.9 µM and 32.1 µM	15.2	28.9 µM and 35.7 µM	7.15	21.7 µM and 19.8 µM	7.38	20.4 µM and 17.5 µM	3.65	12.7 µM and 8.37 µM	9.97	22.2 µM and 19.3 µM		16.7 µM and 17.7 µM	13.1	29.3 µM and 23.8 µM	11.5	27.3 µM and 18.5 µM
Cc1ccc(-c2cc3c4c(nc5ccccc53)C(=O)c3cccnc3-c4n2)cc1	18.2	52.5	16.3	30.1 µM	15.7	37.5 µM	1.85	6.31 µM	7.03	20.9 µM	5.55	21.9 µM	1.85	> 50.1 µM	11.4	37.6 µM	14.4	30 µM	13.2	60.9 µM
O=c1[nH]c(=O)c2cc3cc(C4CC(O)C(CO)O4)ccc3cc2[nH]1 (stereo unspecified)	> 100	> 100	> 100	> 100 µM	> 100	> 100 µM	> 100	> 100 µM	> 100	> 100 µM	17.5	87.8 µM	> 100	> 100 µM	> 100	> 100 µM	> 100	> 100 µM	> 100	> 100 µM
Cc1cc(O)cc(C)c1/C=C/c1cncc(C(N)=O)c1	8.6	> 25	16.5	> 25 µM	2.8	> 25 µM	1.2	> 25 µM	7.24	> 25 µM	0.779	3.84 µM	0.885	3.93 µM	4.15	> 25 µM	2.92	> 25 µM	4.34	> 25 µM
C=C1C(=O)O[C@H]2C[C@@H]1CC/C(C)=C/CC/C(C)=C/CC[C@@]2(C)O	43.4	> 100	44.2	> 100 µM	> 100	> 100 µM	37.3	> 100 µM	7.51	> 100 µM	27.4	79 µM	51	> 100 µM	81.2	> 100 µM	24.9	65.7 µM	> 100	> 100 µM
O=C(NC(=O)c1ccccc1[N+](=O)[O-])Nc1ccc(Oc2ncc(Cl)cn2)c([N+](=O)[O-])c1		> 100		6.06 µM		> 100 µM		> 100 µM		> 28 µM		1.68 µM		> 7.67 µM		> 100 µM		> 100 µM		> 100 µM
Cc1nc(-c2nc(-c3ccc(OC(F)(F)F)cc3)no2)nn1Cc1cccc(N2CCC(S(C)(=O)=O)CC2)c1	18.4	> 100	11.1	> 100 µM	> 33.1	> 100 µM	0.0136	48.6 µM	< 0.01	> 100 µM	> 100	> 100 µM	11.6	> 100 µM	3.86	> 100 µM	> 31.1	> 100 µM	8.75	95.4 µM
